Data set [1] has as its system malignant pleural mesothelioma cell strain EHMES-10. The data set is described as follows: Antitumor effect in vivo, intrathoracic orthotopic transplantation model mouse. On the set-up: species or system mice (C-B-17/Icr-scid/scid Jcl). The protocol: The tumor suppression effect of miR-3140-3p in vivo was investigated with intrathoracic orthotopic transplantation model mouse.
Six weeks-old male mice (C-B-17/Icr-scid/scid Jcl) were used as mice. Malignant pleural mesothelioma cell strain EHMES-10 which expresses the luciferase gene was used as the tumor cell.
The experiment protocol is shown below.
1: Mice were intraperitoneally administered 0.1 mL per 10 g of body weight of a mixed anesthetic drug of medetomidine hydrochloride, midazolam, and butorphanol tartrate.
2: After anesthesia, mouse chest hair was shaved, and an incision was made in the epidermis with scissors.
3: In the mouse pleural cavity 100 μL of tumor cells (3×10^7 cells/mL) was transplanted with a 27 G syringe for insulin.
4: Three days after transplantation, imaging of tumor cells was performed with IVIS Spectrum CT In vivo Imaging System.
5: After imaging, grouping was performed with successfully transplanted mice.
6: Mice were intraperitoneally administered 0.1 mL per 10 g of body weight of a mixed anesthetic drug of medetomidine hydrochloride, midazolam, and butorphanol tartrate to anesthetize the mice.
7: After anesthesia, 100 μL of miRNA/A6K mixture was administered in the mouse pleural cavity.
8: Imaging was performed every week from the first imaging, and tumor expansion was observed.
9: The time and date of death of the mice was recorded, and mice survival rate was calculated.
The mixed anesthetic drug of medetomidine hydrochloride, midazolam, and butorphanol tartrate was prepared as in Table 4 below. The miRNA/A6K mixture was prepared as in Table 5. Moreover, the control group was administered the RNA shown in Table 6 instead of the miRNA of the present invention.
Note that in order to improve expression efficiency, miRNA was administered as a double-strand in combination with a complementary strand comprising partial mismatch.

Data set [2] relates to pancreatic cancer cell strain BxPC-3. The data set can be described thus: Screening in cancer cell strains, cell survival rate with PrestoBlue. Format: cell-based. As to conditions: BxPC-3, Day 5 after transfection with RNAiMAX, compared with miR-34a-5p. The protocol:
(§1) The 349 types of aging induction miRNA (mirVana; Ambion) obtained from screening were transfected into various cancer cell strains (large intestine cancer cell strain HCT116 (p53 wildtype and p53 deletion), pancreatic cancer cell strains BxPC-3 and CFPAC-1, and tongue cancer cell strain HSC-4) with an auto dispenser Bravo (Agilent).
(§2) Transfection was carried out with the following protocol.
(§3) 1: To 70 μL of serum free medium (SFM) was added 0.35 μL of RNAiMAX (Invitrogen).
(§4) 2: The solution from 1 was added to a 96-well plate (μ-plate; ibidi) with Bravo.
(§5) 3: To 2 was added 0.7 μL of miRNA (Stock Conc. 200 nM) with Bravo, and this was mixed by pipetting.
(§6) 4: This was incubated at room temperature for 20 minutes.
(§7) 5: A cell suspension diluted to 3.5×10^4 cells/mL was dispensed at 70 μL each with Bravo.
(§8) 6: This was incubated at 37° C. under 5% CO2 condition.
(§9) Setting the day of transfection as Day 0, on Day 5 the cell survival rate was evaluated with PrestoBlue (Invitrogen). The operating protocol is shown below.
(§10) 1. The medium was exchanged to a medium comprising PrestoBlue diluted 20-folds, and this was incubated at 37° C. for 1 hour. 2. The fluorescence value (Ex/Em=560 nm/590 nm) was measured with Enspire (Perkin Elmer).
(§11) 3. The cell survival rate was determined by setting the fluorescence value obtained from the well with only the reagent as the background.

Data set [3] relates to tongue cancer cell strain HSC-4. The description is as above. Format: cell-based. As to conditions: HSC-4, Day 5 after transfection with RNAiMAX, compared with miR-34a-5p. The protocol: as §1, §2, §3, §4, §5, §6, §7, §8, §9, §10, §11
Data set [4] relates to pancreatic cancer cell strain CFPAC-1. The description is as above. Format: cell-based. As to conditions: CFPAC-1, Day 5 after transfection with RNAiMAX, compared with miR-34a-5p. The protocol: as §1, §2, §3, §4, §5, §6, §7, §8, §9, §10, §11
The subject of data set [5] is large intestine cancer cell strain HCT116 (p53 deletion). The data set is described as above. It is filed as cell-based. As to conditions: Day 5 after transfection with RNAiMAX, compared with miR-34a-5p. The protocol: as §1, §2, §3, §4, §5, §6, §7, §8, §9, §10, §11
The test system of data set [6] is large intestine cancer cell strain HCT116 (p53 wildtype). The data set is described as above. Format: cell-based. As to conditions: Day 5 after transfection with RNAiMAX, compared with miR-34a-5p. The procedure:
as §1, §2, §3, §4, §5, §6, §7, §8, §9, §10, §11

The subject of data set [7] is malignant pleural mesothelioma cells MSTO-211H. The data set can be described thus: Antitumor effect in vivo, subcutaneous transplantation of MSTO-211H cells. The arrangement: species or system SCID mouse. As to conditions: SCID mice, MSTO-211H subcutaneous, miRNA with A6K at tumor site, 13 administrations, 34 days after transplantation, FIG. 13. The protocol:
In order to verify the antitumor effect of the miRNA of the present invention in vivo, experiments was performed with laboratory animals transplanted with malignant pleural mesothelioma cells.
Malignant pleural mesothelioma cells MSTO-211H cells were used.
1: The cells on the dish were washed twice with PBS (-).
2: The cells were detached with trypsin.
3: This was suspended in a medium, and cells were counted.
4: Centrifugation at a condition of 1000 rpm for 3 min was performed to pellet down.
5: The cells were resuspended in PBS (-) in order to obtain 2.0×10^7 cells/mL.
Six weeks-old C-B-17/Icr-scid/scid Jcl (SCID mouse) were used as mice. SCID mice were subcutaneously administered 100 μL of the prepared cell suspension, and the cells were allowed to settle.
Negative control which is the control sequence and miR-3140-3p which is the miRNA of the present invention were employed. A6K (from 3D Matrix) was employed as the nucleic acid delivery reagent. The administration of miRNA to mice was carried out with the following protocol.
1: 100 μM of the nucleic acid (miRNA) was diluted with 10% saline and sterilized water in order to obtain 71.4 μM.
2: 1% A6K solution was sonicated for 5 minutes before use.
3: The diluted nucleic acid and the 1% A6K solution were mixed at a proportion of 1:1 to give the administration nucleic acid. […]

Consider “miR-3140-3p: Mature-miRNA, AGCUUUUGGGAAUUCAGGUAGU (SEQ ID NO. 2) (listed as RNA, chemistry not given here; listed as Homo sapiens)”, for which, in data set [1] (one administration of miRNA/A6K in pleural cavity, 3.2 nmol (45 μg) per mouse, Day 10 to Day 24 after transplantation, FIG. 20), the “tumor reduction by imaging” value is reported as “tumor reduction was seen”. The “tumor expansion (imaging results digitized)” value in data set [1] (one administration of miRNA/A6K in pleural cavity, FIG. 21) is given as “significantly suppressed tumor expansion”. The “survival rates of mice” value in data set [1] (one administration of miRNA/A6K in pleural cavity, FIG. 22) is recorded as “survival rates of mice had improved”; in data set [1] (three administrations of miRNA/A6K in pleural cavity, FIG. 28), “more improved”. Also, the “suppression of malignant pleural mesothelioma (imaging, survival)” value in data set [1] (three administrations of miRNA/A6K in pleural cavity, FIGS. 26-28) is listed as “significantly suppressed malignant pleural mesothelioma”; in data set [1] (two administrations of miRNA/A6K in pleural cavity, FIGS. 23-25) it was “significantly suppressed malignant pleural mesothelioma”. For the same substance, the “suppression of cell proliferation (cell survival rate, PrestoBlue)” value in data set [2], in data set [3], in data set [4], in data set [5] and in data set [6] was “suppress cell proliferation more significantly than miR-34-5p” in each case. For the same substance, the “tumor weight at endpoint compared to the control group” value in data set [7] is listed as “significantly lower”.

Values taken from patent US11311568B2, “Therapeutic pharmaceutical composition for cancer including miRNA” (Purmx Therapeutics, Inc., priority 2017, dated 2022).
